Results on five compounds are retold here after US20080255238A1, “COMPOSITION CONTAINING A THIOUREA DERIVATIVE FOR PREVENTING OR TREATING PRURITIC OR IRRITANT SKIN DISEASES” (AMOREPACIFIC CORPORATION, priority 2004, published 2008).

The structures appear in SMILES notation.

Common to all, as to format: in vivo
For assay [1], the system named is ICR mice. The assay is described as follows: Itching induced by histamine in ICR mice, oral administration. As to conditions: for % Inhibition (mean ± SE): scratching frequency over 30 min, histamine 100 nmol/mouse i.d. 1 h after dosing. From the text: Itching Induced by Histamine in ICR Mice
It is known that the itching response induced by histamine in rodents is generally weaker than that in humans (Kuraishi et al., 1995, Eur. J. Pharmacol. 275, pp 229-233). However, it is known that uniquely, ICR mice sensitively respond to histamine, and this leads to itching response (Maekawa et al., 2000, Jpn. J. Pharmacol. 84, pp 462-466). As is widely known, histamines are representative itching mediators and obviously induce itching in human subjects (Simone et al., 1987, Somatosens. Res. 5, pp 81-92). In this experiment, ICR mice received […]. One day before the experiment, the rostral part of the skin on the back of male ICR mice (28˜32 g, 5˜8 mice/group was clipped. The mice were fasted for 18 hours before experimentation. The drug (compound 1, 0.5 ml/mouse) was dissolved in hydroxypropyl-β-cyclodextrin (HP-β-CD; Mitsubishi Ltd., Japan), and then orally administered to the mice. One hour after the administration, histamine (100 nmol/50 μl/mouse) was dissolved in a physiological saline solution and injected intradermally into the back skin of mice. Immediately after the injection, the mice were placed in a transparent cage, and then the frequency of scratching of the injected site by the hind paws was counted for 30 minutes. The frequency of scratching in test groups administered with the drug was compared to that in a control group administered with histamine alone. The decrease in the frequency of scratching in the test groups was determined as an index of inhibitory effects on itching. The decrease in the frequency of scratching was expressed as a percentage of inhibition to determine inhibitory effects of each compound on itching.

The subject of the next assay is BALB/C mice. The assay is described as follows: Itching induced by compound 48/80 (C48/80) in BALB/C mice, oral administration. The conditions noted are these: for % Inhibition (mean ± SE): scratching frequency over 30 min, C48/80 1 h after dosing, BALB/C mice; for inhibitory effects on itching (in words): C48/80, BALB/C mice. An excerpt: Itching Induced by Compound 48/80 (C48/80) in BALB/C Mice
The frequency of scratching induced by an itching-inducing substance varies depending on mouse strain. For example, it was reported that BALB/C mice are less sensitive to histamines and serotonin than ICR mice (Inagaki et al., 2001, Skin Pharmacol. Appl. Skin Physiol., 14, pp 87-96). […] In this experiment, BALB/C mice received C48/80 to induce itching. One day before the experiment, the rostral part of the skin on the back of BALB/C mice (19˜21 g, 6˜12 mice/group) was clipped. After compound 1 was dissolved in HP-β-CD, and compounds 2 and 3 were dissolved in a physiological saline solution containing 10% ethanol and 10% Tween 80, the solutions were orally administered (10 ml/kg) to the mice. One hour after the administration, C48/80 (50 μg/50 μl/mouse) was dissolved in a physiological saline solution and injected intradermally into the back skin of mice. Immediately after the injection, the mice were housed in a transparent cage and then the frequency of scratching of the injected site by the hind paws was counted for 30 minutes. The frequency of scratching in test groups administered with the drugs was compared to that in a control group administered with C48/80 alone. The decrease in the frequency of scratching in the test groups was determined as an index of inhibitory effects on itching. The decrease in the frequency of scratching was expressed as a percentage of inhibition to determine inhibitory effects of each compound on itching.

Assay [2] concerns ICR mice. The assay is described as follows: Itching induced by compound 48/80 (C48/80) in ICR mice, intradermal administration. From the text:
Itching Induced by Compound 48/80 (C48/80) in ICR Mice
Intradermal Administration
ICR mice suffer from itching upon administration of histamines, and C48/80 (condensation product of N-methyl-p-methoxyphenethylamine with formaldehyde, Sigma, U.S.A.) is a substance that stimulates connective tissues and skin mast cells to release mediators, such as histamines, causing itching. C48/80 causes itching when intradermally administered to humans (Rukwied et al., 2000, Br. J. Pharmacol., 142, pp 1114-1120). In this experiment, ICR mice received C48/80 to induce itching. One day before the experiment, the rostral part of the skin on the back of male ICR mice (28˜32 g, 4˜11 mice/group) was clipped. After the drug (compound 1, 50 μl/mouse) was dissolved in hydroxypropyl-β-cyclodextrin (HP-β-CD; Mitsubishi Ltd., Japan) and C48/80 (50 μg/50 μl/mouse) was dissolved in a physiological saline solution, the solutions were simultaneously injected intradermally into the back skin of mice. Immediately after the injection, the mice were placed in a transparent cage and then the frequency of scratching of the injected site by the hind paws was counted for 60 minutes. The frequency of scratching in test groups administered with the drug was compared to that in a control group administered with C48/80 alone. The decrease in the frequency of scratching in the test groups was determined as an index of inhibitory effects on itching. The decrease in the frequency of scratching was expressed as a percentage of inhibition to determine inhibitory effects of each compound on itching.

As to `CN1CCCC(n2nc(Cc3ccc(Cl)cc3)c3ccccc3c2=O)CC1` (stereo not drawn) [Azelastine chloride, reference compound], the “antipruritic effects (in words)” value in the assay with ICR mice [1] (histamine) was “potent antipruritic effects in a dose-dependent manner”. Moreover, the “% Inhibition (mean ± SE)” value in the assay with ICR mice [1] (dose 1 mg/mouse) worked out at 63.7 ± 26.6%; in the assay with ICR mice [1] (dose 10 mg/mouse), 91.7 ± 6.8%.
With `CC(C)(C)c1ccc(CNC(=S)NCc2ccc(NS(C)(=O)=O)c(Cl)c2)cc1` [Compound 2, 1-(4-t-butylbenzyl)-3-(3-chloro-4-methanesulfonylaminobenzyl)thiourea], the figures for the “% Inhibition (mean ± SE)” value in the assay with BALB/C mice (dose 3 mg), with BALB/C mice (dose 10 mg) and in the assay on BALB/C mice (dose 30 mg) were 0.89 ± 7.23%, 7.42 ± 10.43% and 44.53 ± 11.07%, respectively.
With `CN(C)CCC(c1ccc(Cl)cc1)c1ccccn1` (stereo not drawn) [chlorpheniramine, reference compound], the “inhibitory effects on itching (in words)” value with ICR mice [2] (C48/80, ICR mice) was “no inhibitory effects on itching”; with BALB/C mice, “no inhibitory effects on itching”. For the same compound, the “% Inhibition (mean ± SE)” value with ICR mice [2] (scratching frequency over 60 min, C48/80 50 μg/mouse i.d., ICR mice, dose 0.3 mg/mouse) was −77.61 ± 70.54%; in the assay on BALB/C mice (dose 3 mg), −22.90 ± 28.21%.
Regarding `Cc1cc(CNC(=S)NCc2ccc(C(C)(C)C)cc2)ccc1NS(C)(=O)=O` [Compound 3, 1-(4-t-butylbenzyl)-3-(3-methyl-4-methanesulfonylaminobenzyl)thiourea], the results for the “% Inhibition (mean ± SE)” value with BALB/C mice (dose 3 mg), in the assay on BALB/C mice (dose 10 mg) and in the assay with BALB/C mice (dose 30 mg) were 8.21 ± 5.82%, 11.78 ± 15.26% and 38.76 ± 7.77%, respectively.
Consider `CN1CCC(=C2c3ccccc3CC(=O)c3sccc32)CC1` [Ketotifen, ketotifen, reference compound], for which the “inhibitory effects on itching (in words)” value with BALB/C mice was “no inhibitory effects on itching”. The “% Inhibition (mean ± SE)” value in the assay on BALB/C mice (dose 10 mg) is given as −24.91 ± 15.09%.
